Test results reported in publication PMC6906348 (Therapeutic Advances in Medical Oncology, 2019).

Tested on: patients with advanced HCC
Assay: Safety: adverse events
Assay type: in vivo, human
Conditions: for Abdominal pain (AE regardless of study drug relationship) / Acute kidney injury (AE regardless of study drug relationship) / Anemia (AE regardless of study drug relationship) / Ascites (AE regardless of study drug relationship) / Blood bilirubin increased (AE regardless of study drug relationship) / Blood creatinine increased (AE regardless of study drug relationship) / Constipation (AE regardless of study drug relationship) / Decreased appetite (AE regardless of study drug relationship) / Diarrhea (AE regardless of study drug relationship) / Fatigue (AE regardless of study drug relationship) / Hyperbilirubinemia (AE regardless of study drug relationship) / Hypoalbuminemia (AE regardless of study drug relationship) / Insomnia (AE regardless of study drug relationship) / Leukopenia (AE regardless of study drug relationship) / Nausea (AE regardless of study drug relationship) / Number of patients with at least one event (AE regardless of study drug relationship) / Peripheral edema (AE regardless of study drug relationship) / Platelet count decreased (AE regardless of study drug relationship) / Pyrexia (AE regardless of study drug relationship) / Vomiting (AE regardless of study drug relationship) / Weight decreased (AE regardless of study drug relationship) / ALT increased (AE regardless of study drug relationship) / AST increased (AE regardless of study drug relationship): patients n (%)
[1] = 600 mg capsule BID n = 27, All grades
[2] = 600 mg capsule BID n = 27, Grades 3/4
[3] = All patients n = 38, All grades
[4] = All patients n = 38, Grades 3/4
[5] = all patients (n = 38), all grades

Q: Which results are given for `CNC(=O)c1ccc(-c2cnc3ncc(Cc4ccc5ncccc5c4)n3n2)cc1F` [capmatinib]?
A: Abdominal pain (AE regardless of study drug relationship) [1]: 3 (11); Acute kidney injury (AE regardless of study drug relationship) [1]: 2 (7); Anemia (AE regardless of study drug relationship) [1]: 5 (19); Ascites (AE regardless of study drug relationship) [1]: 4 (15); Blood bilirubin increased (AE regardless of study drug relationship) [1]: 7 (26); Blood creatinine increased (AE regardless of study drug relationship) [1]: 7 (26); Constipation (AE regardless of study drug relationship) [1]: 6 (22); Decreased appetite (AE regardless of study drug relationship) [1]: 9 (33); Diarrhea (AE regardless of study drug relationship) [1]: 8 (30); Fatigue (AE regardless of study drug relationship) [1]: 6 (22); Hyperbilirubinemia (AE regardless of study drug relationship) [1]: 4 (15); Hypoalbuminemia (AE regardless of study drug relationship) [1]: 6 (22); Insomnia (AE regardless of study drug relationship) [1]: 5 (19); Leukopenia (AE regardless of study drug relationship) [1]: 4 (15); Nausea (AE regardless of study drug relationship) [1]: 9 (33); Number of patients with at least one event (AE regardless of study drug relationship) [1]: 27 (100); Peripheral edema (AE regardless of study drug relationship) [1]: 4 (15); Platelet count decreased (AE regardless of study drug relationship) [1]: 4 (15); Pyrexia (AE regardless of study drug relationship) [1]: 5 (19); Vomiting (AE regardless of study drug relationship) [1]: 9 (33); Weight decreased (AE regardless of study drug relationship) [1]: 2 (7); ALT increased (AE regardless of study drug relationship) [2]: 1 (4); AST increased (AE regardless of study drug relationship) [2]: 8 (30); Abdominal pain (AE regardless of study drug relationship) [2]: 1 (4); Acute kidney injury (AE regardless of study drug relationship) [2]: 1 (4); Anemia (AE regardless of study drug relationship) [2]: 1 (4); Ascites (AE regardless of study drug relationship) [2]: 1 (4); Blood bilirubin increased (AE regardless of study drug relationship) [2]: 5 (19); Blood creatinine increased (AE regardless of study drug relationship) [2]: 1 (4); Constipation (AE regardless of study drug relationship) [2]: 0; Decreased appetite (AE regardless of study drug relationship) [2]: 1 (4); Diarrhea (AE regardless of study drug relationship) [2]: 0; Fatigue (AE regardless of study drug relationship) [2]: 0; Hyperbilirubinemia (AE regardless of study drug relationship) [2]: 3 (11); Hypoalbuminemia (AE regardless of study drug relationship) [2]: 0; Insomnia (AE regardless of study drug relationship) [2]: 0; Leukopenia (AE regardless of study drug relationship) [2]: 0; Nausea (AE regardless of study drug relationship) [2]: 1 (4); Number of patients with at least one event (AE regardless of study drug relationship) [2]: 19 (70); Peripheral edema (AE regardless of study drug relationship) [2]: 0; Platelet count decreased (AE regardless of study drug relationship) [2]: 0; Pyrexia (AE regardless of study drug relationship) [2]: 0; Vomiting (AE regardless of study drug relationship) [2]: 1 (4); Weight decreased (AE regardless of study drug relationship) [2]: 0; patients with at least 1 dose reduction due to AEs (7/38 patients): 18%; ALT increased (AE regardless of study drug relationship) [3]: 7 (18); AST increased (AE regardless of study drug relationship) [3]: 12 (32); Abdominal pain (AE regardless of study drug relationship) [3]: 5 (13); Acute kidney injury (AE regardless of study drug relationship) [3]: 4 (11); Anemia (AE regardless of study drug relationship) [3]: 8 (21); Ascites (AE regardless of study drug relationship) [3]: 5 (13); Blood bilirubin increased (AE regardless of study drug relationship) [3]: 9 (24); Blood creatinine increased (AE regardless of study drug relationship) [3]: 10 (26); Constipation (AE regardless of study drug relationship) [3]: 9 (24); Decreased appetite (AE regardless of study drug relationship) [3]: 12 (32); Diarrhea (AE regardless of study drug relationship) [3]: 13 (34); Fatigue (AE regardless of study drug relationship) [3]: 10 (26); Hyperbilirubinemia (AE regardless of study drug relationship) [3]: 4 (11); Hypoalbuminemia (AE regardless of study drug relationship) [3]: 8 (21); Insomnia (AE regardless of study drug relationship) [3]: 7 (18); Leukopenia (AE regardless of study drug relationship) [3]: 4 (11); Nausea (AE regardless of study drug relationship) [3]: 16 (42); Number of patients with at least one event (AE regardless of study drug relationship) [3]: 38 (100); Peripheral edema (AE regardless of study drug relationship) [3]: 6 (16); Platelet count decreased (AE regardless of study drug relationship) [3]: 4 (11); Pyrexia (AE regardless of study drug relationship) [3]: 6 (16); Vomiting (AE regardless of study drug relationship) [3]: 14 (37); Weight decreased (AE regardless of study drug relationship) [3]: 4 (11); ALT increased (AE regardless of study drug relationship) [4]: 2 (5); AST increased (AE regardless of study drug relationship) [4]: 9 (24); Abdominal pain (AE regardless of study drug relationship) [4]: 1 (3); Acute kidney injury (AE regardless of study drug relationship) [4]: 2 (5); Anemia (AE regardless of study drug relationship) [4]: 3 (8); Ascites (AE regardless of study drug relationship) [4]: 1 (3); Blood bilirubin increased (AE regardless of study drug relationship) [4]: 6 (16); Blood creatinine increased (AE regardless of study drug relationship) [4]: 1 (3); Constipation (AE regardless of study drug relationship) [4]: 0; Decreased appetite (AE regardless of study drug relationship) [4]: 1 (3); Diarrhea (AE regardless of study drug relationship) [4]: 1 (3); Fatigue (AE regardless of study drug relationship) [4]: 0; Hyperbilirubinemia (AE regardless of study drug relationship) [4]: 3 (8); Hypoalbuminemia (AE regardless of study drug relationship) [4]: 1 (3); Insomnia (AE regardless of study drug relationship) [4]: 0; Leukopenia (AE regardless of study drug relationship) [4]: 0; Nausea (AE regardless of study drug relationship) [4]: 1 (3); Number of patients with at least one event (AE regardless of study drug relationship) [4]: 25 (66); Peripheral edema (AE regardless of study drug relationship) [4]: 0; Platelet count decreased (AE regardless of study drug relationship) [4]: 0; Pyrexia (AE regardless of study drug relationship) [4]: 0; Vomiting (AE regardless of study drug relationship) [4]: 2 (5); Weight decreased (AE regardless of study drug relationship) [4]: 0; diarrhea, AE regardless of causality [5]: 34%; nausea, AE regardless of causality [5]: 42%; vomiting, AE regardless of causality [5]: 37%; patients with AEs that led to discontinuation of capmatinib (all patients (n = 38), nine patients): 24%; tolerability (single agent, 600 mg BID capsules and 400 mg BID tablets): tolerable with a manageable safety profile
